Key:
Format in all cases: physicochemical
[1] = degradation of vitamin C at 40°C over 16 weeks, eutectic solvent compared to water (figure 1); conditions: 5 % vitamin C in eutectic solvent (5% vitamin C, 40% betaine, 55% glycerol) compared to water, 40 degrees
[2] = color stability of vitamin C in closed and open glass flasks after 3 months at room temperature (figure 2)
[3] = degradation of ascorbic acid after addition of water or ethanol to the eutectic liquid; conditions: addition of water or ethanol up to 15%, preferably up to 10%
Description: This liquid, stable at room temperature, can be incorporated into cosmetic formulas.

Question: With `O=C1O[C@H]([C@@H](O)CO)C(O)=C1O` [vitamin C, ascorbic acid] as the molecule, how does the “degradation of vitamin C” value [1] read?
Answer: The value was “enhanced protection”.

Question: What about the “stability of vitamin C” value ([2]; 21% vitamin C in water, closed bottles) of the same molecule?
Answer: The value was “unstable”.

Question: And the “stability of vitamin C” value ([2]; 21% vitamin C in water, opened glass bottles)?
Answer: The value was “unstable”.

Question: What about the “stability of vitamin C” value ([2]; in betaine and glycerol (21% vitamin C, 29% betaine, 50% glycerin), closed bottles) of the same molecule?
Answer: Its value is “stable”.

Question: What about the “degradation of the ascorbic acid” value [3] of the same molecule?
Answer: Its value is “without increased degradation”.

Source: patent EP4011353A1 (Beiersdorf AG, priority 2020, dated 2022)
